Patent US7683168B2, “Compositions of novel opioid compounds and method of use thereof” (priority 2005, dated 2010)

What was measured:
human mu opioid receptor = target: T1, human mu opioid receptor (Homo sapiens, UniProt P35372); assay: radioligand binding, human mu opioid receptor, CHO cell membranes; settings: species not given, read-out: μ
T1 construct: purchased Perkin Elmer, Boston, Mass; 6110535; host or cells: CHO cells

human delta receptor = target: T2, human delta receptor (Homo sapiens, UniProt P41143); assay: radioligand binding, human delta receptor, HEK-293 cell membranes; settings: cell not marked (rat), species not given, read-out: δ
T2 construct: purchased Perkin Elmer, Boston, Mass; 6110549; host or cells: HEK-293 cells
T2 sequence (P41143 whole entry): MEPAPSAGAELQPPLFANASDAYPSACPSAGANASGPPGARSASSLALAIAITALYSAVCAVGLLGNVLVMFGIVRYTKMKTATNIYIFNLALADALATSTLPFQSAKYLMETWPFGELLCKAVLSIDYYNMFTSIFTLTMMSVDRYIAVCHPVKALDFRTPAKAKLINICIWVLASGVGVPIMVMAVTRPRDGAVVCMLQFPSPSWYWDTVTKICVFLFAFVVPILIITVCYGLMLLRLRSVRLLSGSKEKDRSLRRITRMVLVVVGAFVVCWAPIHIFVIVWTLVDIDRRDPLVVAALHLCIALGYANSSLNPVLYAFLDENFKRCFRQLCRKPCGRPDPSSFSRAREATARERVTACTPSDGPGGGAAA

mouse vas deferens = assay: electrically stimulated mouse vas deferens (MVD) ED50; type: cell-based; settings: ED50, inhibition of electrically induced contractions

T1 sequence (P35372 whole entry): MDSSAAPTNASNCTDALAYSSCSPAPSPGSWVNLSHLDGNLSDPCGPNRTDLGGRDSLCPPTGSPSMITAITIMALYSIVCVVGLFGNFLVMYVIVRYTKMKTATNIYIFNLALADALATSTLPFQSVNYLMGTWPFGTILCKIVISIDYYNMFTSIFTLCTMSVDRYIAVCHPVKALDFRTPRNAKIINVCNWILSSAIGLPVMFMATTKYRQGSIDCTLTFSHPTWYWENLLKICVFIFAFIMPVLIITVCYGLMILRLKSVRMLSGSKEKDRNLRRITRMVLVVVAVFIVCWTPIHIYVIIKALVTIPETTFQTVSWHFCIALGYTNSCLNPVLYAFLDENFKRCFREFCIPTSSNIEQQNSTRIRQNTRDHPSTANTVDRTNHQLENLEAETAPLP

Row | Structure (SMILES) | Ki (human mu opioid receptor) | Ki (human delta receptor) | EC50 (mouse vas deferens)
1 | C[C@@H]1CN(C(c2cccc(O)c2)c2cccc(C(=O)N3CCCN(CC(=O)O)CC3)c2)[C@@H](C)CN1Cc1cccc(F)c1 (stereo partly shown) | 3.1 nM | – | –
2 | CCOC(=O)CCCN1CCCN(C(=O)c2cccc(C(c3cccc(O)c3)N3C[C@@H](C)N(CC4CC4)C[C@@H]3C)c2)CC1 (stereo partly shown) | 3.9 nM | 10.3 nM | 92.5 nM
3 | C[C@@H]1CN(C(c2cccc(O)c2)c2cccc(C(=O)N3CCCN(CCCC(=O)O)CC3)c2)[C@@H](C)CN1CC1CC1 (stereo partly shown) | 26.5 nM | 527 nM | 60.9 nM
4 | CCOC(=O)CCCCN1CCCN(C(=O)c2cccc(C(c3cccc(O)c3)N3C[C@@H](C)N(CC4CC4)C[C@@H]3C)c2)CC1 (stereo partly shown) | 29.9 nM | 88.5 nM | 116 nM
5 | C[C@@H]1CN(C(c2cccc(O)c2)c2cccc(C(=O)N3CCCN(CCCCC(=O)O)CC3)c2)[C@@H](C)CN1CC1CC1 (stereo partly shown) | 558 nM | 62.1 nM | 77.5 nM
6 | C=CCN1C[C@H](C)N(C(c2cccc(O)c2)c2cccc(C(=O)N3CCCN(CCCCCC(=O)OCC)CC3)c2)C[C@H]1C (stereo partly shown) | 21.3 nM | 3.2 nM | 43.3 nM
7 | CCOC(=O)CCCCCN1CCCN(C(=O)c2cccc(C(c3cccc(O)c3)N3C[C@@H](C)N(Cc4ccccc4)C[C@@H]3C)c2)CC1 (stereo partly shown) | 23.4 nM | 3.7 nM | 29.6 nM
8 | CCOC(=O)CCCCCN1CCCN(C(=O)c2cccc(C(c3cccc(O)c3)N3C[C@@H](C)N(Cc4cccc(F)c4)C[C@@H]3C)c2)CC1 (stereo partly shown) | 58.5 nM | 12.9 nM | 156 nM
9 | C[C@@H]1CN(C(c2cccc(O)c2)c2cccc(C(=O)N3CCCN(CCCCCC(=O)O)CC3)c2)[C@@H](C)CN1Cc1cccc(F)c1 (stereo partly shown) | 222 nM | 25.1 nM | 16.2 nM
10 | CCOC(=O)CCCCCN1CCCN(C(=O)c2cccc(C(c3cccc(O)c3)N3C[C@@H](C)N(CC4CC4)C[C@@H]3C)c2)CC1 (stereo partly shown) | 9.3 nM | 23.5 nM | 1040 nM
11 | C[C@@H]1CN(C(c2cccc(O)c2)c2cccc(C(=O)N3CCCN(CCCCCC(=O)O)CC3)c2)[C@@H](C)CN1CC1CC1 (stereo partly shown) | 20.3 nM | 5.6 nM | 110 nM
12 | C=CCN1C[C@H](C)N(C(c2cccc(O)c2)c2cccc(C(=O)N3CCCN(CCCCCCC(=O)OCC)CC3)c2)C[C@H]1C (stereo partly shown) | 3.9 nM | 3.1 nM | 52.3 nM
13 | C=CCN1C[C@H](C)N(C(c2cccc(O)c2)c2cccc(C(=O)N3CCCN(CCCCCCC(=O)O)CC3)c2)C[C@H]1C (stereo partly shown) | 8.3 nM | 5.6 nM | 34.9 nM
14 | CCOC(=O)CCCCCCN1CCCN(C(=O)c2cccc(C(c3cccc(O)c3)N3C[C@@H](C)N(Cc4ccccc4)C[C@@H]3C)c2)CC1 (stereo partly shown) | 3.8 nM | 2.4 nM | 28.6 nM
15 | C[C@@H]1CN(C(c2cccc(O)c2)c2cccc(C(=O)N3CCCN(CCCCCCC(=O)O)CC3)c2)[C@@H](C)CN1Cc1ccccc1 (stereo partly shown) | 6.3 nM | 4.9 nM | 10.4 nM
16 | CCOC(=O)CCCCCCN1CCCN(C(=O)c2cccc(C(c3cccc(O)c3)N3C[C@@H](C)N(Cc4cccc(F)c4)C[C@@H]3C)c2)CC1 (stereo partly shown) | 7 nM | 13.3 nM | 245 nM
17 | C[C@@H]1CN(C(c2cccc(O)c2)c2cccc(C(=O)N3CCCN(CCCCCCC(=O)O)CC3)c2)[C@@H](C)CN1Cc1cccc(F)c1 (stereo partly shown) | 222 nM | 141 nM | 109 nM
18 | CCOC(=O)CCCCCCN1CCCN(C(=O)c2cccc(C(c3cccc(O)c3)N3C[C@@H](C)N(CC4CC4)C[C@@H]3C)c2)CC1 (stereo partly shown) | 8 nM | 44.3 nM | 88.1 nM

Row | Structure (SMILES) | Ki (human mu opioid receptor) | Ki (human delta receptor) | EC50 (mouse vas deferens)
19 | C[C@@H]1CN(C(c2cccc(O)c2)c2cccc(C(=O)N3CCCN(CCCCCCC(=O)O)CC3)c2)[C@@H](C)CN1CC1CC1 (stereo partly shown) | 40.7 nM | 50.6 nM | 339 nM
20 | C=CCN1C[C@H](C)N(C(c2cccc(O)c2)c2cccc(C(=O)N3CCCN(Cc4cccc(C(=O)OC)c4)CC3)c2)C[C@H]1C (stereo partly shown) | – | – | 19.6 nM
21 | C=CCN1C[C@H](C)N(C(c2cccc(O)c2)c2cccc(C(=O)N3CCCN(Cc4ccccc4C(=O)OC)CC3)c2)C[C@H]1C (stereo partly shown) | – | – | 21.8 nM
22 | CCOC(=O)N1CCN(C(=O)c2cccc([C@H](c3cccc(O)c3)N3C[C@@H](C)N(Cc4cccc(F)c4)C[C@@H]3C)c2)CC1 [Example 60, 4-{3-[(R)-[(2S,5R)-4-(3-Fluorobenzyl)-2,5-dimethylpiperazin-1-yl]-(3-hydroxyphenyl)methyl]benzoyl}piperazine-1-carboxylic acid ethyl ester] | 9.8 nM | 13.1 nM | 47.2 nM
23 | CCOC(=O)CN1CCN(C(=O)c2cccc([C@H](c3cccc(O)c3)N3C[C@@H](C)N(Cc4cccc(F)c4)C[C@@H]3C)c2)CC1 [Example 66, (4-{3-[(R)-[(2S,5R)-4-(3-Fluoro-benzyl)-2,5-dimethyl-piperazin-1-yl]-(3-hydroxy-phenyl)-methyl]-benzoyl}-piperazin-1-yl)-acetic acid ethyl ester] | 5.05 nM | 1.3 nM | 22 nM
24 | CCOC(=O)CN1CCN(C(=O)c2cccc([C@H](c3cccc(O)c3)N3C[C@@H](C)N(CC4CC4)C[C@@H]3C)c2)CC1 [Example 70, (4-{3-[(R)-((2S,5R)-4-Cyclopropylmethyl-2,5-dimethyl-piperazin-1-yl)-(3-hydroxy-phenyl)-methyl]-benzoyl}-piperazin-1-yl)-acetic acid ethyl ester] | 8.7 nM | 3.5 nM | 55.4 nM
25 | C[C@@H]1CN([C@@H](c2cccc(O)c2)c2cccc(C(=O)N3CCN(CC(=O)O)CC3)c2)[C@@H](C)CN1CC1CC1 [Example 71] | 81.8 nM | 6.1 nM | 35.9 nM
26 | CCOC(=O)CCCN1CCN(C(=O)c2cccc([C@H](c3cccc(O)c3)N3C[C@@H](C)N(CC4CC4)C[C@@H]3C)c2)CC1 [Example 77, 4-(4-{3-[(R)-((2S,5R)-4-Cyclopropylmethyl-2,5-dimethyl-piperazin-1-yl)-(3-hydroxy-phenyl)-methyl]-benzoyl}-piperazin-1-yl)-butyric acid ethyl ester] | 4.4 nM | 402 nM | 111 nM
27 | CCOC(=O)CCCN1CCN(C(=O)c2cccc([C@H](c3cccc(O)c3)N3C[C@@H](C)N(Cc4cccc(F)c4)C[C@@H]3C)c2)CC1 [Example 81, 4-(4-{3-[(R)-((2S,5R)-4-(3-Fluorobenzyl)-2,5-dimethyl-piperazin-1-yl)-(3-hydroxy-phenyl)-methyl]-benzoyl}-piperazin-1-yl)-butyric acid ethyl ester] | 4.9 nM | 12.7 nM | 44.8 nM
28 | CCOC(=O)CCCCN1CCN(C(=O)c2cccc([C@H](c3cccc(O)c3)N3C[C@@H](C)N(Cc4cccc(F)c4)C[C@@H]3C)c2)CC1 [Example 87, 5-(4-{3-[(R)-((2S,5R)-4-(3-Fluorobenzyl)-2,5-dimethyl-piperazin-1-yl)-(3-hydroxy-phenyl)-methyl]-benzoyl}-piperazin-1-yl)-pentanoic acid ethyl ester] | 21.3 nM | 10.8 nM | 36.2 nM
29 | CCOC(=O)CCCCCN1CCN(C(=O)c2cccc([C@H](c3cccc(O)c3)N3C[C@@H](C)N(CC4CC4)C[C@@H]3C)c2)CC1 [Example 100, 6-(4-{3-[(R)-((2S,5R)-4-Cyclopropylmethyl-2,5-dimethyl-piperazin-1-yl)-(3-hydroxy-phenyl)-methyl]-benzoyl}-piperazin-1-yl)-hexanoic acid ethyl ester] | – | – | 170 nM
30 | C[C@@H]1CN([C@@H](c2cccc(O)c2)c2cccc(C(=O)N3CCN(CCCCCC(=O)O)CC3)c2)[C@@H](C)CN1CC1CC1 [Example 101, 6-(4-{3-[(R)-((2S,5R)-4-Cyclopropylmethyl-2,5-dimethyl-piperazin-1-yl)-(3-hydroxy-phenyl)-methyl]-benzoyl}-piperazin-1-yl)-hexanoic acid] | – | – | 75.8 nM
31 | C=CCN1C[C@H](C)N([C@@H](c2cccc(O)c2)c2cccc(C(=O)N3CCN(CCCCCCC(=O)OCC)CC3)c2)C[C@H]1C [Example 108, 7-(4-{3-[(R)-((2S,5R)-4-Allyl-2,5-dimethyl-piperazin-1-yl)-(3-hydroxy-phenyl)-methyl]-benzoyl}-piperazin-1-yl)-heptanoic acid ethyl ester] | – | – | 31.7 nM
32 | CCOC(=O)CCCCCCN1CCN(C(=O)c2cccc([C@H](c3cccc(O)c3)N3C[C@@H](C)N(Cc4cccc(F)c4)C[C@@H]3C)c2)CC1 [Example 112, 7-(4-{3-[(R)-[(2S,5R)-4-(3-Fluoro-benzyl)-2,5-dimethyl-piperazin-1-yl]-(3-hydroxy-phenyl)-methyl]-benzoyl}-piperazin-1-yl)-heptanoic acid ethyl ester] | 5.9 nM | – | 111 nM
33 | CCOC(=O)CCCCCCN1CCN(C(=O)c2cccc([C@H](c3cccc(O)c3)N3C[C@@H](C)N(CC4CC4)C[C@@H]3C)c2)CC1 [Example 114, 7-(4-{3-[(R)-((2S,5R)-4-Cyclopropylmethyl-2,5-dimethyl-piperazin-1-yl)-(3-hydroxy-phenyl)-methyl]-benzoyl}-piperazin-1-yl)-heptanoic acid ethyl ester] | – | – | 221 nM
34 | C[C@@H]1CN([C@@H](c2cccc(O)c2)c2cccc(C(=O)N3CCN(CCCCCCC(=O)O)CC3)c2)[C@@H](C)CN1CC1CC1 [Example 115, 7-(4-{3-[(R)-((2S,5R)-4-Cyclopropylmethyl-2,5-dimethyl-piperazin-1-yl)-(3-hydroxy-phenyl)-methyl]-benzoyl}-piperazin-1-yl)-heptanoic acid] | – | 22 nM | 85.8 nM
35 | C[C@@H]1CN([C@@H](c2cccc(O)c2)c2cccc(C(=O)N3CCN(CC(=O)O)CC3)c2)[C@@H](C)CN1Cc1ccc(F)cc1 [Example 116, (4-{3-[(R)-[(2S,5R)-4-(4-Fluoro-benzyl)-2,5-dimethyl-piperazin-1-yl]-(3-hydroxy-phenyl)-methyl]-benzoyl}-piperazin-1-yl)-acetic acid] | – | 0.83 nM | 1.95 nM
